Measurements: patent US20200216439A1, “HETERO-1,5,6,7-TETRAHYDRO-4H-INDOL-4-ONES” (BAYER PHARMA AKTIENGESELLSCHAFT, priority 2015, published 2020)

The compounds below were run against T1, catalytic domain of human Bub1 (amino acids 704-1085) (Homo sapiens, UniProt O43683) (assay: Bub1 kinase assay (TR-FRET)). Settings: TR-FRET; ATP 10 μM, peptide substrate 1 μM; 60 min at 22° C.; average or median if tested more than once; read-out: Inhibition of Bub1 kinase IC50.
T1 construct: catalytic domain of human Bub1 (amino acids 704-1085); His6 (N); made in house; host or cells: Hi5 insect cells
T1 sequence (O43683 704-1085): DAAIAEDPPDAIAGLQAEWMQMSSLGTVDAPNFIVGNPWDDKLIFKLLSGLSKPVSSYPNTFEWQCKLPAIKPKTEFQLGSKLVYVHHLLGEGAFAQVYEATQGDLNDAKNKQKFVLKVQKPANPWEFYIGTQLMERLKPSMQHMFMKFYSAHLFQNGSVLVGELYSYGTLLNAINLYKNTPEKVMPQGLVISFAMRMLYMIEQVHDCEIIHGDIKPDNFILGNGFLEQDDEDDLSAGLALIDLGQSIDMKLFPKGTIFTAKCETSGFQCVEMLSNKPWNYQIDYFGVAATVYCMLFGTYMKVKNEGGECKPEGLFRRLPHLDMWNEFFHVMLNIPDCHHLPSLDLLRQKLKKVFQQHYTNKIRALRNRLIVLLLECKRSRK
Format: biochemical
Description: Bub1-inhibitory activities of compounds described in the present invention were quantified using a time-resolved fluorescence energy transfer (TR-FRET) kinase assay which measures phosphorylation of the synthetic peptide Biotin-Ahx-VLLPKKSFAEPG (C-terminus in amide form), purchased from e.g. Biosyntan (Berlin, Germany) by the (recombinant) catalytic domain of human Bub1 (amino acids 704-1085), expressed in Hi5 insect cells with an N-terminal His6-tag and purified by affinity—(Ni-NTA) and size exclusion chromatography.
In a typical assay 11 different concentrations of each compound (0.1 nM, 0.33 nM, 1.1 nM, 3.8 nM, 13 nM, 44 nM, 0.15 μM, 0.51 μM, 1.7 μM, 5.9 μM and 20 μM) were tested in duplicate within the same microtiter plate. To this end, 100-fold concentrated compound solutions (in DMSO) were previously prepared by serial dilution (1:3.4) of 2 mM stocks in a clear low volume 384-well source microtiter plate (Greiner Bio-One, Frickenhausen, Germany), from which 50 nl of compounds were transferred into a black low volume test microtiter plate from the same supplier. Subsequently, 2 μL of Bub1 (the final concentration of Bub1 was adjusted depending on the activity of the enzyme lot in order to be within the linear dynamic range of the assay: typically ˜200 ng/mL were used) in aqueous assay buffer [50 mM Tris/HCl pH 7.5, 10 mM magnesium chloride (MgCl2), 200 mM potassium chloride (KCl), 1.0 mM dithiothreitol (DTT), 0.1 mM sodium ortho-vanadate, 1% (v/v) glycerol, 0.01% (w/v) bovine serum albumine (BSA), 0.005% (v/v) Trition X-100 (Sigma), 1× Complete EDTA-free protease inhibitor mixture (Roche)] were added to the compounds in the test plate and the mixture was incubated for 15 min at 22° C. to allow pre-equilibration of the putative enzyme-inhibitor complexes before the start of the kinase reaction, which was initiated by the addition of 3 μL 1.67-fold concentrated solution (in assay buffer) of adenosine-tri-phosphate (ATP, 10 μM final concentration) and peptide substrate (1 μM final concentration). The resulting mixture (5 μL final volume) was incubated at 22° C. during 60 min., and the reaction was stopped by the addition of 5 μL of an aqueous EDTA-solution (50 mM EDTA, in 100 mM HEPES pH 7.5 and 0.2% (w/v) bovine serum albumin) which also contained the TR-FRET detection reagents (0.2 μM streptavidin-XL665 [Cisbio Bioassays, Codolet, France] and 1 nM anti-phospho-Serine antibody [Merck Millipore, cat. #35-002] and 0.4 nM LANCE EU-W1024 labeled anti-mouse IgG antibody [Perkin-Elmer, product no. AD0077, alternatively a Terbium-cryptate-labeled anti-mouse IgG antibody from Cisbio Bioassays can be used]). The stopped reaction mixture was further incubated 1 h at 22° C. in order to allow the formation of complexes between peptides and detection reagents. Subsequently, the amount of product was evaluated by measurement of the resonance energy transfer from the Eu-chelate-antibody complex recognizing the Phosphoserine residue to the streptavidin-XL665 bound to the biotin moiety of the peptide. To this end, the fluorescence emissions at 620 nm and 665 nm after excitation at 330-350 nm were measured in a TR-FRET plate reader, e.g. a Rubystar or Pherastar (both from BMG Labtechnologies, Offenburg, Germany) or a Viewlux (Perkin-Elmer) and the ratio of the emissions (665 nm/[…]) was taken as indicator for the amount of phosphorylated substrate. The data were normalised using two sets of control wells for high—(=enzyme reaction without inhibitor=0%=Minimum inhibition) and low—(=all assay components without enzyme=100%=Maximum inhibition) Bub1 activity. IC50 values were calculated by fitting the normalized inhibition data to a 4-parameter logistic equation (Minimum, Maximum, IC50, Hill; Y=Max+(Min−Max)/(1+(X/IC50)Hill)).

Row | Structure (SMILES) | IC50
1 | C[S+]([O-])CCNC(=O)N1CC(=O)c2c([nH]c(-c3ccncc3)c2Nc2ccccc2)C1 (racemic) [Example 88, N-{2-[(RS)-Methylsulfinyl]ethyl}4-oxo-3-(phenylamino)-2-(pyridin-4-yl)-1,4,5,7-tetrahydro-6H-pyrrolo[2,3-c]pyridine-6-carboxamide] | 21 nM
2 | CC(C)(C)OC(=O)N1CC(=O)c2c([nH]c(-c3ccnc(NC(=O)C4CC4(F)F)c3)c2Nc2ccccc2)C1 (racemic) [Example 121, tert-Butyl 2-[2-({[(1RS)-2,2-difluorocyclopropyl]carbonyl}amino)pyridin-4-yl]-4-oxo-3-(phenylamino)-1,4,5,7-tetrahydro-6H-pyrrolo[2,3-c]pyridine-6-carboxylate] | 10 nM
3 | O=C1CNCc2[nH]c(-c3ccnc(NC(=O)C4CC4(F)F)c3)c(Nc3ccccc3)c21 (racemic) [Example 137, (1RS)—N-[4-(3-Anilino-4-oxo-4,5,6,7-tetrahydro-1H-pyrrolo[2,3-c]pyridin-2-yl)pyridin-2-yl]-2,2-difluorocyclopropanecarboxamide] | 64 nM
4 | COC(=O)N1CC(=O)c2c([nH]c(-c3ccnc(NC(=O)C4CC4(F)F)c3)c2Nc2ccccc2)C1 (racemic) [Example 146, Methyl 3-anilino-2-[2-({[(1RS)-2,2-difluorocyclopropyl]carbonyl}amino)pyridin-4-yl]-4-oxo-1,4,5,7-tetrahydro-6H-pyrrolo[2,3-c]pyridine-6-carboxylate] | 10 nM
5 | CC(C)(C)OC(=O)N1CC(=O)c2c([nH]c(-c3ccnc(NC(=O)[C@@H]4C[C@@H]4F)c3)c2Nc2ccccc2)C1 (relative stereo) [Example 120, tert-Butyl 2-[2-({[rel-(1S,2S)-2-fluorocyclopropyl]carbonyl}amino)pyridin-4-yl]-4-oxo-3-(phenylamino)-1,4,5,7-tetrahydro-6H-pyrrolo[2,3-c]pyridine-6-carboxylate] | 9 nM
6 | CC(C)(C)OC(=O)N1CC(=O)c2c([nH]c(-c3ccnc(NC(=O)[C@@H]4C[C@H]4F)c3)c2Nc2ccccc2)C1 (relative stereo) [Example 129, tert-Butyl 3-anilino-2-[2-({[(rel-1S,2R)-2-fluorocyclopropyl]carbonyl}amino)pyridin-4-yl]-4-oxo-1,4,5,7-tetrahydro-6H-pyrrolo[2,3-c]pyridine-6-carboxylate] | 7 nM
7 | O=C1CNCc2[nH]c(-c3ccnc(NC(=O)[C@@H]4C[C@@H]4F)c3)c(Nc3ccccc3)c21 (relative stereo) [Example 136, rel-(1S,2S)—N-[4-(3-Anilino-4-oxo-4,5,6,7-tetrahydro-1H-pyrrolo[2,3-c]pyridin-2-yl)pyridin-2-yl]-2-fluorocyclopropanecarboxamide] | 81 nM
8 | COC(=O)N1CC(=O)c2c([nH]c(-c3ccnc(NC(=O)[C@@H]4C[C@@H]4F)c3)c2Nc2ccccc2)C1 (relative stereo) [Example 139, Methyl 3-anilino-2-[2-({[rel-(1S,2S)-2-fluorocyclopropyl]carbonyl}amino)pyridin-4-yl]-4-oxo-1,4,5,7-tetrahydro-6H-pyrrolo[2,3-c]pyridine-6-carboxylate] | 7 nM
9 | O=C1CNCc2[nH]c(-c3ccnc(NC(=O)[C@@H]4C[C@H]4F)c3)c(Nc3ccccc3)c21 (relative stereo) [Example 142, rel-(1S,2R)—N-[4-(3-Anilino-4-oxo-4,5,6,7-tetrahydro-1H-pyrrolo[2,3-c]pyridin-2-yl)pyridin-2-yl]-2-fluorocyclopropanecarboxamide] | 76 nM
10 | CS(=O)(=O)N1CC(=O)c2c([nH]c(-c3ccnc(NC(=O)[C@H]4C[C@H]4F)c3)c2Nc2ccccc2)C1 (relative stereo) [Example 148, rel-(1R,2R)—N-{4-[3-Anilino-6-(methylsulfonyl)-4-oxo-4,5,6,7-tetrahydro-1H-pyrrolo[2,3-c]pyridin-2-yl]pyridin-2-yl}-2-fluorocyclopropanecarboxamide] | 4 nM
11 | O=C1CN(Cc2ccccc2)Cc2[nH]c(-c3ccncc3)c(Nc3ccccc3)c21 [Example 1, 6-Benzyl-3-(phenylamino)-2-(pyridin-4-yl)-1,5,6,7-tetrahydro-4H-pyrrolo[2,3-c]pyridin-4-one] | 67 nM
12 | O=C1CNCc2[nH]c(-c3ccncc3Cl)c(Nc3ccccc3)c21 [Example 2, 2-(3-Chloropyridin-4-yl)-3-(phenylamino)-1,5,6,7-tetrahydro-4H-pyrrolo[2,3-c]pyridin-4-one] | 236 nM

Further lines, results first:

Row | IC50 | Structure (SMILES)
13 | 79 nM | NC(CN1CC(=NO)c2c([nH]c(-c3ccncc3)c2Nc2ccccc2)C1)=NO (mixture of isomers) [Example 218, (1E/Z)—N′-Hydroxy-2-[(4E/Z)-4-(hydroxyimino)-3-(phenylamino)-2-(pyridin-4-yl)-1,4,5,7-tetrahydro-6H-pyrrolo[2,3-c]pyridin-6-yl]ethanimidamide]
14 | 4 nM | CS(=O)(=O)N1CC(=O)c2c([nH]c(-c3ccnc(NC(=O)C4CC4(F)F)c3)c2Nc2ccccc2)C1 (racemic) [Example 149, (1RS)—N-{4-[3-Anilino-6-(methylsulfonyl)-4-oxo-4,5,6,7-tetrahydro-1H-pyrrolo[2,3-c]pyridin-2-yl]pyridin-2-yl}-2,2-difluorocyclopropanecarboxamide]
15 | 8 nM | CC(C)OC(=O)N1CC(=O)c2c([nH]c(-c3ccnc(NC(=O)C4CC4(F)F)c3)c2Nc2ccccc2)C1 (racemic) [Example 158, Isopropyl 3-anilino-2-[2-({[(1RS)-2,2-difluorocyclopropyl]carbonyl}amino)pyridin-4-yl]-4-oxo-1,4,5,7-tetrahydro-6H-pyrrolo[2,3-c]pyridine-6-carboxylate]
16 | 6 nM | O=C1CN(S(=O)(=O)c2cnc[nH]2)Cc2[nH]c(-c3ccnc(NC(=O)C4CC4(F)F)c3)c(Nc3ccccc3)c21 (racemic) [Example 164, (1RS)—N-{4-[3-Anilino-6-(1H-imidazol-5-ylsulfonyl)-4-oxo-4,5,6,7-tetrahydro-1H-pyrrolo[2,3-c]pyridin-2-yl]pyridin-2-yl}-2,2-difluorocyclopropanecarboxamide]
17 | 5 nM | CC(=O)Nc1cc(-c2[nH]c3c(c2Nc2ccccc2)C(=O)CN(C(=O)C(C)C(F)(F)F)C3)ccn1 (racemic) [Example 178, N-(4-{3-Anilino-4-oxo-6-[(2RS)-3,3,3-trifluoro-2-methylpropanoyl]-4,5,6,7-tetrahydro-1H-pyrrolo[2,3-c]pyridin-2-yl}pyridin-2-yl)acetamide]
18 | 7 nM | CC(C)OC(=O)N1CC(=O)c2c([nH]c(-c3ccnc(NC(=O)[C@H]4C[C@H]4F)c3)c2Nc2ccccc2)C1 (relative stereo) [Example 157, Isopropyl 3-anilino-2-[2-({[rel-(1R,2R)-2-fluorocyclopropyl]carbonyl}amino)pyridin-4-yl]-4-oxo-1,4,5,7-tetrahydro-6H-pyrrolo[2,3-c]pyridine-6-carboxylate]
19 | 6 nM | O=C1CN(S(=O)(=O)c2cnc[nH]2)Cc2[nH]c(-c3ccnc(NC(=O)[C@H]4C[C@H]4F)c3)c(Nc3ccccc3)c21 (relative stereo) [Example 163, rel-(1R,2R)—N-{4-[3-Anilino-6-(1H-imidazol-5-ylsulfonyl)-4-oxo-4,5,6,7-tetrahydro-1H-pyrrolo[2,3-c]pyridin-2-yl]pyridin-2-yl}-2-fluorocyclopropanecarboxamide]
